Results from BindingDB's records for doi:10.1021/jm5002919 (Takeda Pharmaceutical, 2014).

Molecular target: G-protein coupled receptor 52 (Homo sapiens, UniProt Q9Y2T5)
Test: Agonist activity at human GPR52 expressed in CHO cells assessed as cAMP production after 30 mins by Alphascreen assay

G-protein coupled receptor 52, sequence (Q9Y2T5 whole entry): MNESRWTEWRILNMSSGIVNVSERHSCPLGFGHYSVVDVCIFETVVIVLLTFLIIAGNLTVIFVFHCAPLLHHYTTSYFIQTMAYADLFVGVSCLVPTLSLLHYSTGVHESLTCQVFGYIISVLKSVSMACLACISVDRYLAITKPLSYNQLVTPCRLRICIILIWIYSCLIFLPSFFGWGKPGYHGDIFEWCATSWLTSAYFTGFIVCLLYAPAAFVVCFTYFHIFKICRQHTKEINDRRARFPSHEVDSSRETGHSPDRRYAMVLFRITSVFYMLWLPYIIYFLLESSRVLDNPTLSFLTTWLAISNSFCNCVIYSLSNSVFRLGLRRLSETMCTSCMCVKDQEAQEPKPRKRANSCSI

- EC50: > 10 µM
SMILES: COc1ccc(-c2ccnc(NCCc3ccc(OC)c(OC)c3C)n2)cc1
